Laboratory results taken from patent publication US20240132449A1, “HETEROCYCLIC COMPOUNDS AND METHODS OF USE THEREOF” (1cBio, Inc., priority 2022, published 2024).
Counter-ions that a name gives are not always drawn.

Experiments:
PARP1 [1] = target: T1, PARP1 (Homo sapiens, UniProt P09874); test: PARP1 fluorescence polarization binding assay; settings: binding IC50, GST-tagged PARP1 20 nM, PARPi-FL 3 nM
Method in brief: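 Competitive FP binding: 20 nM GST-tagged PARP1 preincubated with compound 30 min at RT, then 3 nM PARPi-FL probe for 4 h at RT; buffer 50 mM Tris pH 8.0, 10 mM MgCl2, 150 mM NaCl. 10-point 3-fold dilutions; % inhibition from mP versus controls, IC50 by four-parameter fit, reported in ranges.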

[2] = test system: DLD-1 BRCA2(−/−) colorectal adenocarcinoma cells; test: Cell viability assay (Cell Titer-Glo), DLD-1 BRCA2(−/−); assay type: cell-based; settings: Homo sapiens, DLD-1, 168 h; 7 days incubation, 200 cells/well
Method in brief: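 Isogenic DLD-1 wild-type (50 cells/well) and BRCA2(−/−) (200 cells/well) lines treated after overnight attachment, 7 days at 37 °C, 5% CO2. Ten-point dilutions (e.g. 1.5 nM–30 μM) or single dose; CellTiter-Glo luminescence; IC50 from four-parameter fit, plus % inhibition at 10 μM.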

PARP1 [3] = target: T1, PARP1; test: PARP1 biochemical trapping assay (BPS PARPtrap)
Method: Compounds of the present disclosure were tested in a PARP1 biochemical trapping assay at BPS Bioscience (San Diego, CA). PARP1 is known to bind damaged DNA through its DNA-binding domains. Binding to DNA activates PARP1, and in the presence of NAD+, PARP1 ribosylates itself (auto-ribosylation), leading to PARP1 dissociation from the DNA due to the accumulated negative charge of the ribosyl polymer. In the presence of some inhibitors, however, PARP remains bound to the DNA, a phenomenon termed trapping.
The BPS PARPtrap assay kit for PARP1 (BPS Catalog #80584) was used. A series of dilutions of the compounds were prepared with 10% DMSO in water. The final concentration of DMSO was 1% in all reactions. The enzymatic reactions were conducted in duplicates at room temperature in a 96-well plate. The 45 μl reaction mixtures in PARPtrap buffer 1 containing PARP1 fluorescent labelled oligonucleotide duplex, PARP enzyme and the test compound were incubated at room temperature for 10 min. After pre-incubation, the enzymatic reaction was initiated by adding 5 μl of 10×NAD+ solution. The reaction was incubated for 45-60 min at room temperature.
Fluorescence polarization was measured at an excitation of 470 nm and an emission of 518 nm using a Tecan Infinite M1000 microplate reader. The blank value was subtracted from all other values. Fluorescence polarization was analyzed by Tecan Magellan 6 software and wells containing DNA were used as references. The fluorescence polarization data were then evaluated using GraphPad Prism software. The fluorescence polarization in absence of the compound in each data set was defined as 0% activity (FPo), while the fluorescence polarization in the absence of both NAD+ and the compound was defined as 100% activity (FPt). The percent activity in the presence of the compound was calculated according to the equation % activity=[FP−FPo]/[(FPt−FPo)]×100, where FP=the fluorescence polarization in the presence of the compound.
The values of % activity versus a series of compound concentrations were then plotted using non-linear regression analysis of a sigmoidal dose-response curve generated with the equation Y=B+(T−B)/1+10^((LogEC50−X)×Hill Slope), where Y=percent activity, B=minimum percent activity, T=maximum percent activity, X=logarithm of compound and Hill Slope=slope factor or Hill coefficient. The EC50 value was determined by the concentration causing a half-maximal percent activity. EC50 values are shown in Table C and are presented in ranges, in which “+++”<300 nM, 300 nM≤“++”<3000 nM, and “+”≥3000 nM.

T1 sequence (P09874 whole entry): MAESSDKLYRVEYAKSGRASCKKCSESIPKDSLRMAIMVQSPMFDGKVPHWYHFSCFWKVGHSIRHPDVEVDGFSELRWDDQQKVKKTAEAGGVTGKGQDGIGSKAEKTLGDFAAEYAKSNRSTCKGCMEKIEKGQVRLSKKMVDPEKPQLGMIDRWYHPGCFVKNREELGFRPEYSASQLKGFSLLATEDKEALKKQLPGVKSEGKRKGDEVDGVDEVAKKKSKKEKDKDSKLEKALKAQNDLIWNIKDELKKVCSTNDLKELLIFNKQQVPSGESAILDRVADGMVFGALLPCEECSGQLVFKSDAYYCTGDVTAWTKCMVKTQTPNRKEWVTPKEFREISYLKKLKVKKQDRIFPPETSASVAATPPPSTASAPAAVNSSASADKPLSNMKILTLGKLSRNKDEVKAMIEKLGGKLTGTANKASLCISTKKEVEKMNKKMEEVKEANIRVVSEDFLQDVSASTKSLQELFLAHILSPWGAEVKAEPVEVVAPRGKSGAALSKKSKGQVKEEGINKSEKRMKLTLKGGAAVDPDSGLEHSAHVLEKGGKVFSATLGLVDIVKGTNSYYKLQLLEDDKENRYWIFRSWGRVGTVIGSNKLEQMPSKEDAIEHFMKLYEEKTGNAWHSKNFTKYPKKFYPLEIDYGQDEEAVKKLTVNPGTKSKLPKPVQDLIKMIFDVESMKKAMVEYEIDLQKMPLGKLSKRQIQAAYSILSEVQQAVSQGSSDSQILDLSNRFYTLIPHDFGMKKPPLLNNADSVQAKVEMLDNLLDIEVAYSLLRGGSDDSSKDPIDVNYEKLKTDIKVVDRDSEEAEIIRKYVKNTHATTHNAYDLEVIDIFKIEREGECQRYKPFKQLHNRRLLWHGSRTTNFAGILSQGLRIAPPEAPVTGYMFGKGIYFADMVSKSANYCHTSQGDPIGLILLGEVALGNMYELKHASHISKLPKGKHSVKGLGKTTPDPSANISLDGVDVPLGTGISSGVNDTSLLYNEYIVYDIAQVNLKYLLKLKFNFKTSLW

Row | Compound | IC50 (PARP1 [1]) [µM] | IC50 [2] [µM] | EC50 (PARP1 [3]) [µM]
1 | CCn1c(=O)[nH]c2cc(CN3CCN(c4ccc(C(=O)NC)nc4)CC3)ccc2c1=O [Compound 3, 5-(4-((3-ethyl-2,4-dioxo-1,2,3,4-tetrahydroquinazolin-7-yl)methyl)piperazin-1-yl)-N-methylpicolinamide formate] | < 0.1 | 0.3 to 3 | 0.3 to 3
2 | CCn1c(=O)[nH]c2cc(CN3CCN(c4ccc(C(=O)NC)nc4C)CC3)ccc2c1=O [Compound 16, 5-{4-[(3-ethyl-2,4-dioxo-1H-quinazolin-7-yl)methyl]piperazin-1-yl}-N,6-dimethylpyridine-2-carboxamide] | < 0.1 | < 0.3 | < 0.3
3 | CCn1c(=O)[nH]c2cc(CN3CCN(c4ccc(C(=O)NC)nc4C)CC3)ccc2c1=S [Compound 51, 5-(4-((3-ethyl-2-oxo-4-thioxo-1,2,3,4-tetrahydroquinazolin-7-yl)methyl)piperazin-1-yl)-N,6-dimethylpicolinamide formate] | < 0.1 | < 0.3 | 0.3 to 3
4 | CCn1c(=O)[nH]c2cc(CN3CCN(c4ccc(C(=O)NC)nc4C)CC3)sc2c1=O [Compound 188, 5-(4-((3-ethyl-2,4-dioxo-1,2,3,4-tetrahydrothieno[3,2-d]pyrimidin-6-yl)methyl)piperazin-1-yl)-N,6-dimethylpicolinamide] | < 0.1 | < 0.3 | 0.3 to 3
5 | CCN1Cc2ccc(CN3CCN(c4ccc(C(=O)NC)nc4)CC3)cc2NC1=O [Compound 196, 5-(4-((3-ethyl-2-oxo-1,2,3,4-tetrahydroquinazolin-7-yl)methyl)piperazin-1-yl)-N-methylpicolinamide formate] | < 0.1 | 0.3 to 3 | 0.3 to 3
